# Assays:
# EPHA6 = biological target: T1, EPHA6 (Homo sapiens, UniProt Q9UF33); assay: KINOMEscan panel screen; assay type: binding; conditions: read-out: Percent Control(%)
# T1 construct: purchased DiscoveRx KINOMEscan (Ambit Biosciences)
# TBK1 = biological target: T2, TBK1 (Homo sapiens, UniProt Q9UHD2); assay: KINOMEscan panel screen; assay type: binding; conditions: read-out: Percent Control(%)
# T2 construct: purchased DiscoveRx KINOMEscan (Ambit Biosciences)
# [1] = biological target: T3, ABL1(T315I)-phosphorylated (Homo sapiens, UniProt P00519, T315I); assay: KINOMEscan panel screen; assay type: binding; conditions: read-out: Percent Control(%)
# T3 construct: purchased DiscoveRx KINOMEscan (Ambit Biosciences)
# NIK = biological target: T4, NIK (Homo sapiens, UniProt Q99558); assay: KINOMEscan panel screen; assay type: binding; conditions: read-out: Percent Control(%)
# T4 construct: purchased DiscoveRx KINOMEscan (Ambit Biosciences)
# T4 sequence (Q99558 whole entry): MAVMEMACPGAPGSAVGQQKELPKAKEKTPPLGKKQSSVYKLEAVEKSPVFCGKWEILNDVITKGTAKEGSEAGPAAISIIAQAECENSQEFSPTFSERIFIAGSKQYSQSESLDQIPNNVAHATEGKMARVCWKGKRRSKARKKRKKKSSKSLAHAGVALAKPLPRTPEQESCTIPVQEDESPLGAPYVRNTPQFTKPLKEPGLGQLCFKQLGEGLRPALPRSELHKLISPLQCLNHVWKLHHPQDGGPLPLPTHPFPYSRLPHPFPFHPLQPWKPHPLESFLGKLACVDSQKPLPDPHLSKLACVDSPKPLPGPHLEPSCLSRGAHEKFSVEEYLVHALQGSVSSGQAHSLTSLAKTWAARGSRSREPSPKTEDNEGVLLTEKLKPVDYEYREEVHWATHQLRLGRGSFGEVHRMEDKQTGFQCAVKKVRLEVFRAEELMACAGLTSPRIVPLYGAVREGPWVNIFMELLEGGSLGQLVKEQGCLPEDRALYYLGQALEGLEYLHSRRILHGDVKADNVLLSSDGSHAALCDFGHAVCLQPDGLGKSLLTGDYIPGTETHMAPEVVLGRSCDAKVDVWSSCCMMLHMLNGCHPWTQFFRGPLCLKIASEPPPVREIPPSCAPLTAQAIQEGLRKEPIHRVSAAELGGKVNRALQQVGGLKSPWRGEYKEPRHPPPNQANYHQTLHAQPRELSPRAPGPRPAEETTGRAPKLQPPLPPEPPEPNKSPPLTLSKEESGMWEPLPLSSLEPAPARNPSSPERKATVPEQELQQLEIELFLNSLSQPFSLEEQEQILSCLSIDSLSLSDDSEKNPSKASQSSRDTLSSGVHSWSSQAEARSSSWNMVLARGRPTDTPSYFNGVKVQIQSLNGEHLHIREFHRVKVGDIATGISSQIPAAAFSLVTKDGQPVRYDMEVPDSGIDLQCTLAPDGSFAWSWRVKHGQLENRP
# LTK = biological target: T5, LTK (Homo sapiens, UniProt P29376); assay: KINOMEscan panel screen; assay type: binding; conditions: read-out: Percent Control(%)
# T5 construct: purchased DiscoveRx KINOMEscan (Ambit Biosciences)
# KIT(V559D,V654A) = biological target: T6, KIT(V559D,V654A) (Homo sapiens, UniProt P10721, V559D/V654A); assay: KINOMEscan panel screen; assay type: binding; conditions: read-out: Percent Control(%)
# T6 construct: purchased DiscoveRx KINOMEscan (Ambit Biosciences)
# EGFR(L861Q) = biological target: T7, EGFR(L861Q) (Homo sapiens, UniProt P00533, L861Q); assay: KINOMEscan panel screen; assay type: binding; conditions: read-out: Percent Control(%)
# T7 construct: purchased DiscoveRx KINOMEscan (Ambit Biosciences)
# T7 sequence (P00533 25-1210 L861Q): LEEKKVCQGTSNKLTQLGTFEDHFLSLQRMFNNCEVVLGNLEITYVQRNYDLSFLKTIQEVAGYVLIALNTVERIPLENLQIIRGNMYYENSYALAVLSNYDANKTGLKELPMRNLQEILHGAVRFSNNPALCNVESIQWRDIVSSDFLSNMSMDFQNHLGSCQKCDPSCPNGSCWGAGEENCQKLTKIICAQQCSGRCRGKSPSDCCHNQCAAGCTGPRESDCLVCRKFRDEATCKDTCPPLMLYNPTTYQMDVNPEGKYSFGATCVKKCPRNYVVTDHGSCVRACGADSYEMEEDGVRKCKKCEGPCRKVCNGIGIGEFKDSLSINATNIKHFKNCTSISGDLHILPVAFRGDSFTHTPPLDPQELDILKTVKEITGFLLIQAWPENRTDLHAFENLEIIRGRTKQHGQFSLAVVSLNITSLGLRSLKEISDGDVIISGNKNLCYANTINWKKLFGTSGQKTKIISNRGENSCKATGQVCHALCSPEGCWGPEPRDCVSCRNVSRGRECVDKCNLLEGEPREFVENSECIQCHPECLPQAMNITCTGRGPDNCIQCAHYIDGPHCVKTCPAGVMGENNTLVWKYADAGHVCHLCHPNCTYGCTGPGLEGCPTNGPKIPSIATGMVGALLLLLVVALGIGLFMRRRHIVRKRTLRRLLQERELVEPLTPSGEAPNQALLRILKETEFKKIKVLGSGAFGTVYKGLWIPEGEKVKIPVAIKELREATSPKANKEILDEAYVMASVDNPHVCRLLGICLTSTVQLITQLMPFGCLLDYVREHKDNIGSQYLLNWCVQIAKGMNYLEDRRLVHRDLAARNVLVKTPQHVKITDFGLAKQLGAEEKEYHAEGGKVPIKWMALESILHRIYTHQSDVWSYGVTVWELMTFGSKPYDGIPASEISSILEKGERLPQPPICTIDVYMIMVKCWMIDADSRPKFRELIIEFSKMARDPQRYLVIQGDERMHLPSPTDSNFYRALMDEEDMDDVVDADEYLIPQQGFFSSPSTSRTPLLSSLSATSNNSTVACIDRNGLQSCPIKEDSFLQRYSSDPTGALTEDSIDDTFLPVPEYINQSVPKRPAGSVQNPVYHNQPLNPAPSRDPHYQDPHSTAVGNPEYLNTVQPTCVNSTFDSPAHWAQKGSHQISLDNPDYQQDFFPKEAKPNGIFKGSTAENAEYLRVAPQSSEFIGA
# GRK1 = biological target: T8, GRK1 (Homo sapiens, UniProt Q15835); assay: KINOMEscan panel screen; assay type: binding; conditions: read-out: Percent Control(%)
# T8 construct: purchased DiscoveRx KINOMEscan (Ambit Biosciences)
# PIK4CB = biological target: T9, PIK4CB (Homo sapiens, UniProt Q9UBF8); assay: KINOMEscan panel screen; assay type: binding; conditions: read-out: Percent Control(%)
# T9 construct: purchased DiscoveRx KINOMEscan (Ambit Biosciences)
# PDGFRβ = biological target: T10, PDGFRβ (Homo sapiens, UniProt P09619); assay: KINOMEscan kinase binding assay (Kd)
# T10 construct: purchased Ambit Biosciences (KINOMEscan)
# Ramos = assay: MTT cell viability assay; conditions: Homo sapiens, 72 h
# MST3 = biological target: T11, MST3 (Homo sapiens, UniProt Q9Y6E0); assay: KINOMEscan panel screen; assay type: binding; conditions: read-out: Percent Control(%)
# T11 construct: purchased DiscoveRx KINOMEscan (Ambit Biosciences)
# TRKB = biological target: T12, TRKB (Homo sapiens, UniProt Q16620); assay: KINOMEscan panel screen; assay type: binding; conditions: read-out: Percent Control(%)
# T12 construct: purchased DiscoveRx KINOMEscan (Ambit Biosciences)
# ARK5 = biological target: T13, ARK5 (Homo sapiens, UniProt O60285); assay: KINOMEscan panel screen; assay type: binding; conditions: read-out: Percent Control(%)
# T13 construct: purchased DiscoveRx KINOMEscan (Ambit Biosciences)
# MLCK = biological target: T14, MLCK (Homo sapiens, UniProt Q32MK0); assay: KINOMEscan panel screen; assay type: binding; conditions: read-out: Percent Control(%)
# T14 construct: purchased DiscoveRx KINOMEscan (Ambit Biosciences)
# YES = biological target: T15, YES (Homo sapiens, UniProt P07947); assay: KINOMEscan panel screen; assay type: binding; conditions: read-out: Percent Control(%)
# T15 construct: purchased DiscoveRx KINOMEscan (Ambit Biosciences)
# T15 sequence (P07947 whole entry): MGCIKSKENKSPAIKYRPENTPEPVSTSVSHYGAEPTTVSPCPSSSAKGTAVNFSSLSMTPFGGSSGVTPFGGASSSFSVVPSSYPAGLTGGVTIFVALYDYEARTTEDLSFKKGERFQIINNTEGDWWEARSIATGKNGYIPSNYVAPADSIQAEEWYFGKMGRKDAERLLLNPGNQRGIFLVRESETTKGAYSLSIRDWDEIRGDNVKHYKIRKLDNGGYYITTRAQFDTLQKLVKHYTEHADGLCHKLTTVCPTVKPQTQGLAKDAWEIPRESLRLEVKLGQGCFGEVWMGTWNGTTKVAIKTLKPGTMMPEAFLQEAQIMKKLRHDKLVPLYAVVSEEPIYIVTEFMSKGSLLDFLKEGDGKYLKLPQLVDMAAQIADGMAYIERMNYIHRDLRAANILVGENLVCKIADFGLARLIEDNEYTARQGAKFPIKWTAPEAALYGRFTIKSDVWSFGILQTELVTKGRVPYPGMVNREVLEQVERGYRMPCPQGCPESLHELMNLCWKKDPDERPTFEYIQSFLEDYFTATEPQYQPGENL
# SGK = biological target: T16, SGK (Homo sapiens, UniProt O00141); assay: KINOMEscan panel screen; assay type: binding; conditions: read-out: Percent Control(%)
# T16 construct: purchased DiscoveRx KINOMEscan (Ambit Biosciences)
# DCAMKL2 = biological target: T17, DCAMKL2 (Homo sapiens, UniProt Q8N568); assay: KINOMEscan panel screen; assay type: binding; conditions: read-out: Percent Control(%)
# T17 construct: purchased DiscoveRx KINOMEscan (Ambit Biosciences)
# H1975 = assay: MTT cell viability assay; conditions: Homo sapiens, NCI-H1975, 72 h
# FGFR1 = biological target: T18, FGFR1 (Homo sapiens, UniProt P11362); assay: KINOMEscan panel screen; assay type: binding; conditions: read-out: Percent Control(%)
# T18 construct: purchased DiscoveRx KINOMEscan (Ambit Biosciences)
# PIP5K1C = biological target: T19, PIP5K1C (Homo sapiens, UniProt O60331); assay: KINOMEscan panel screen; assay type: binding; conditions: read-out: Percent Control(%)
# T19 construct: purchased DiscoveRx KINOMEscan (Ambit Biosciences)
# ERK2 = biological target: T20, ERK2 (Homo sapiens, UniProt P28482); assay: KINOMEscan panel screen; assay type: binding; conditions: read-out: Percent Control(%)
# T20 construct: purchased DiscoveRx KINOMEscan (Ambit Biosciences)
# T20 sequence (P28482 whole entry): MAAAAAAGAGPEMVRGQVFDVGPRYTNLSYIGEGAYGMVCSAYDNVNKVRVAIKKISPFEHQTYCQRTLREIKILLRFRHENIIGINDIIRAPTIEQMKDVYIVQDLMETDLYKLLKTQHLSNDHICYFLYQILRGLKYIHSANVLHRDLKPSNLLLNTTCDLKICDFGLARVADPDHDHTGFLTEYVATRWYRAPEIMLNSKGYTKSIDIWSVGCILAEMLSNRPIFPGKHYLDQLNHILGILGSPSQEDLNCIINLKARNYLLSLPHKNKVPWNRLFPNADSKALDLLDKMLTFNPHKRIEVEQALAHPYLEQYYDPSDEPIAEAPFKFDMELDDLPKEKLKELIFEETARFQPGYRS
# EGFR(S752-I759del) = biological target: T21, EGFR(S752-I759del) (Homo sapiens, UniProt P00533, DEL752-759); assay: KINOMEscan panel screen; assay type: binding; conditions: read-out: Percent Control(%)
# T21 construct: purchased DiscoveRx KINOMEscan (Ambit Biosciences)
# FES = biological target: T22, FES (Homo sapiens, UniProt P07332); assay: KINOMEscan panel screen; assay type: binding; conditions: read-out: Percent Control(%)
# T22 construct: purchased DiscoveRx KINOMEscan (Ambit Biosciences)
# T22 sequence (P07332 whole entry): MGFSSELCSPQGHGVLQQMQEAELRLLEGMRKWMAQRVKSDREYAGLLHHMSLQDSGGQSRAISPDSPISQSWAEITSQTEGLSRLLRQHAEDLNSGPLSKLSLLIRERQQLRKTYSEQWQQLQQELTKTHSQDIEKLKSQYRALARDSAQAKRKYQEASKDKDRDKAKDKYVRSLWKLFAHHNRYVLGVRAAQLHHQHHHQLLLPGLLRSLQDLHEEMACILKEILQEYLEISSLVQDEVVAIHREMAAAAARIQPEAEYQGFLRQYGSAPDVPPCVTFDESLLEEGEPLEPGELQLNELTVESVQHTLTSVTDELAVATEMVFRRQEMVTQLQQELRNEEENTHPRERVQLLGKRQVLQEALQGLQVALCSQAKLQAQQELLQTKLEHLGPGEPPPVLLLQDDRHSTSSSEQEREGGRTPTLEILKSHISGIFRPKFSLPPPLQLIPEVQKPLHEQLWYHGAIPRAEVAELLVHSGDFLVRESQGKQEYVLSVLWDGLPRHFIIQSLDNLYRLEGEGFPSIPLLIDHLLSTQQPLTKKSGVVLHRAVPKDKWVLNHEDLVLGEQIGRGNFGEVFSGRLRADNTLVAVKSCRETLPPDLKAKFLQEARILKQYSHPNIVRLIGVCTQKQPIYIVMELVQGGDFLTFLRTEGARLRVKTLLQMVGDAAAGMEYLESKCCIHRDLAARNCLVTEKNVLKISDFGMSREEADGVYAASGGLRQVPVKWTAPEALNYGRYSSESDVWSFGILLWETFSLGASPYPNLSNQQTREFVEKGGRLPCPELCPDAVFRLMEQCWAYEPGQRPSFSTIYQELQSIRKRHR
# MAP3K4 = biological target: T23, MAP3K4 (Homo sapiens, UniProt Q9Y6R4); assay: KINOMEscan panel screen; assay type: binding; conditions: read-out: Percent Control(%)
# T23 construct: purchased DiscoveRx KINOMEscan (Ambit Biosciences)
# LIMK2 = biological target: T24, LIMK2 (Homo sapiens, UniProt P53671); assay: KINOMEscan panel screen; assay type: binding; conditions: read-out: Percent Control(%)
# T24 construct: purchased DiscoveRx KINOMEscan (Ambit Biosciences)
# PC-9 = assay: MTT cell viability assay; conditions: Homo sapiens, PC-9, 72 h
# PAK4 = biological target: T25, PAK4 (Homo sapiens, UniProt O96013); assay: KINOMEscan kinase binding assay (Kd)
# T25 construct: DNA tag (qPCR read-out); purchased Ambit Biosciences (KINOMEscan service)
# DDR2 = biological target: T26, DDR2 (Homo sapiens, UniProt Q16832); assay: KINOMEscan panel screen; assay type: binding; conditions: read-out: Percent Control(%)
# T26 construct: purchased DiscoveRx KINOMEscan (Ambit Biosciences)
# PDGFRα = biological target: T27, PDGFRα (Homo sapiens, UniProt P16234); assay: KINOMEscan kinase binding assay (Kd)
# T27 construct: purchased Ambit Biosciences (KINOMEscan)
# TNNI3K = biological target: T28, TNNI3K (Homo sapiens, UniProt Q59H18); assay: KINOMEscan panel screen; assay type: binding; conditions: read-out: Percent Control(%)
# T28 construct: purchased DiscoveRx KINOMEscan (Ambit Biosciences)
# ALK(C1156Y) = biological target: T29, ALK(C1156Y) (Homo sapiens, UniProt Q9UM73, C1156Y); assay: KINOMEscan panel screen; assay type: binding; conditions: read-out: Percent Control(%)
# T29 construct: purchased DiscoveRx KINOMEscan (Ambit Biosciences)
# KIT-autoinhibited = biological target: T30, KIT-autoinhibited (Homo sapiens, UniProt P10721); assay: KINOMEscan panel screen; assay type: binding; conditions: read-out: Percent Control(%)
# T30 construct: purchased DiscoveRx KINOMEscan (Ambit Biosciences)
# T30 sequence (P10721 546-976 limits assumed): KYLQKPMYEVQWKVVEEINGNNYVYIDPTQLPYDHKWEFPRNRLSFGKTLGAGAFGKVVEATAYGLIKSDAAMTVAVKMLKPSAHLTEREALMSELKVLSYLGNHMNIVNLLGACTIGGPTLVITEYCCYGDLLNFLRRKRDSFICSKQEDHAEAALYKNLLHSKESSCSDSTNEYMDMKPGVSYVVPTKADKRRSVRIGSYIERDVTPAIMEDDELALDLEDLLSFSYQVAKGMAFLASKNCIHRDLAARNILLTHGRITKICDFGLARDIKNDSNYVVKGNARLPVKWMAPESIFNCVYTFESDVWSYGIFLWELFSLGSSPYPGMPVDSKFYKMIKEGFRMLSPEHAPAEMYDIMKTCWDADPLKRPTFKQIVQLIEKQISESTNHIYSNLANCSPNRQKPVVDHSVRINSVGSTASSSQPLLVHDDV
# AURKB = biological target: T31, AURKB (Homo sapiens, UniProt Q96GD4); assay: KINOMEscan panel screen; assay type: binding; conditions: read-out: Percent Control(%)
# T31 construct: purchased DiscoveRx KINOMEscan (Ambit Biosciences)
# CLK2 = biological target: T32, CLK2 (Homo sapiens, UniProt P49760); assay: KINOMEscan panel screen; assay type: binding; conditions: read-out: Percent Control(%)
# T32 construct: purchased DiscoveRx KINOMEscan (Ambit Biosciences)
# EGFR = biological target: T33, EGFR (Homo sapiens, UniProt P00533); assay: KINOMEscan panel screen; assay type: binding; conditions: read-out: Percent Control(%)
# T33 construct: purchased DiscoveRx KINOMEscan (Ambit Biosciences)
# DYRK1B = biological target: T34, DYRK1B (Homo sapiens, UniProt Q9Y463); assay: KINOMEscan panel screen; assay type: binding; conditions: read-out: Percent Control(%)
# T34 construct: purchased DiscoveRx KINOMEscan (Ambit Biosciences)
# FLT3-autoinhibited = biological target: T35, FLT3-autoinhibited (Homo sapiens, UniProt P36888); assay: KINOMEscan panel screen; assay type: binding; conditions: read-out: Percent Control(%)
# T35 construct: purchased DiscoveRx KINOMEscan (Ambit Biosciences)
# [2] = biological target: T36, ABL1(Y253F)-phosphorylated (Homo sapiens, UniProt P00519, Y253F); assay: KINOMEscan panel screen; assay type: binding; conditions: read-out: Percent Control(%)
# T36 construct: purchased DiscoveRx KINOMEscan (Ambit Biosciences)
# ERBB2 = ERBB2 (Homo sapiens, UniProt P04626); assay: KINOMEscan panel screen; assay type: binding; conditions: read-out: Percent Control(%)
# FLT3(K663Q) = biological target: T37, FLT3(K663Q) (Homo sapiens, UniProt P36888, K663Q); assay: KINOMEscan panel screen; assay type: binding; conditions: read-out: Percent Control(%)
# T37 construct: purchased DiscoveRx KINOMEscan (Ambit Biosciences)
# GCN2(Kin.Dom.2,S808G) = biological target: T38, GCN2(Kin.Dom.2,S808G) (Homo sapiens, UniProt Q9P2K8, S808G); assay: KINOMEscan panel screen; assay type: binding; conditions: read-out: Percent Control(%)
# T38 construct: GCN2(Kin.Dom.2,S808G); purchased DiscoveRx KINOMEscan (Ambit Biosciences)
# T2 sequence (Q9UHD2 whole entry): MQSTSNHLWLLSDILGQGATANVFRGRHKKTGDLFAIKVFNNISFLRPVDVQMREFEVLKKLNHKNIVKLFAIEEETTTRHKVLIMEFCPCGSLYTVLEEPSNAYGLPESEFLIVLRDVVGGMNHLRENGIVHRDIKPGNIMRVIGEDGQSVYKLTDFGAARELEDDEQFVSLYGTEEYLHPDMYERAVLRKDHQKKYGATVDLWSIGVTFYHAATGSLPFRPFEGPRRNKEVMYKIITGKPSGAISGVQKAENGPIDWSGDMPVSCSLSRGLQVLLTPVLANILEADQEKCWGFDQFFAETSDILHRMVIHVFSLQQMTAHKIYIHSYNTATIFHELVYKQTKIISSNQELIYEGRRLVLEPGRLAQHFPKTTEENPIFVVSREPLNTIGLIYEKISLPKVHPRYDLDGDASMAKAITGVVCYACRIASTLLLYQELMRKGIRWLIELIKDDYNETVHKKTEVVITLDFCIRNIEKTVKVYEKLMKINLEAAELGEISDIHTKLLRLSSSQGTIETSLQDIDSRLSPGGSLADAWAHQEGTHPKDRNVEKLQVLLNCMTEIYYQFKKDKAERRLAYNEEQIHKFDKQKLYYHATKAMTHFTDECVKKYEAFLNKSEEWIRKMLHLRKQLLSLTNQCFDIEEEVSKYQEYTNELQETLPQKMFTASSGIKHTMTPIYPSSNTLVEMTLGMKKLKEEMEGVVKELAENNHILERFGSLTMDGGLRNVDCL
smiles,measurement,setting,value
"CC(C)(C)c1cc(NC(=O)Nc2ccc(Oc3ncnc4[nH]ncc34)c(F)c2)no1 [SKLB-677, 1-(4-(1H-pyrazolo[3,4-d]pyrimidin-4-yloxy)-3-fluorophenyl)-3-(5-tert-butylisoxazol-3-yl)urea]",remaining binding at 10 µM,EPHA6,0%
same,remaining binding at 10 µM,TBK1,70%
same,remaining binding at 10 µM,[1],3.3%
same,remaining binding at 10 µM,NIK,90%
same,remaining binding at 10 µM,LTK,1.2%
same,remaining binding at 10 µM,"KIT(V559D,V654A)",1.8%
same,remaining binding at 10 µM,EGFR(L861Q),46%
same,remaining binding at 10 µM,GRK1,97%
same,remaining binding at 10 µM,PIK4CB,52%
same,Kd,PDGFRβ,0.0027 µM
same,IC50,Ramos,8.4 µM
same,remaining binding at 10 µM,MST3,46%
same,remaining binding at 10 µM,TRKB,0.05%
same,remaining binding at 10 µM,ARK5,47%
same,remaining binding at 10 µM,MLCK,58%
same,remaining binding at 10 µM,YES,27%
same,remaining binding at 10 µM,SGK,29%
same,remaining binding at 10 µM,DCAMKL2,100%
same,IC50,H1975,> 10 µM
same,remaining binding at 10 µM,FGFR1,1.4%
same,remaining binding at 10 µM,PIP5K1C,51%
same,remaining binding at 10 µM,ERK2,100%
same,remaining binding at 10 µM,EGFR(S752-I759del),38%
same,remaining binding at 10 µM,FES,7.2%
same,remaining binding at 10 µM,MAP3K4,69%
same,remaining binding at 10 µM,LIMK2,7%
same,IC50,PC-9,8.03 µM
same,Kd,PAK4,> 10 µM
same,remaining binding at 10 µM,DDR2,61%
same,Kd,PDGFRα,0.012 µM
same,remaining binding at 10 µM,TNNI3K,0%
same,remaining binding at 10 µM,ALK(C1156Y),17%
same,remaining binding at 10 µM,KIT-autoinhibited,1.1%
same,remaining binding at 10 µM,AURKB,2.6%
same,remaining binding at 10 µM,CLK2,6.4%
same,remaining binding at 10 µM,EGFR,29%
same,remaining binding at 10 µM,DYRK1B,41%
same,remaining binding at 10 µM,FLT3-autoinhibited,1.2%
same,remaining binding at 10 µM,[2],10%
same,remaining binding at 10 µM,ERBB2,100%
same,remaining binding at 10 µM,FLT3(K663Q),1.8%
same,remaining binding at 10 µM,"GCN2(Kin.Dom.2,S808G)",20%

# Reference: publication PMC4620497 (Scientific Reports, 2015)
